Assay results as given in patent publication US20240150423A1, “GLP-1 ANALOGUE-MODIFIED DIMERS WITH DIFFERENT CONFIGURATIONS, PREPARATION METHOD THEREOF, AND APPLICATION THEREOF IN TREATMENT OF TYPE II DIABETES” (Nanjing Finepeptide Biopharmaceutical Co.,Ltd, priority 2019, published 2024).
Positions of bridges follow the written chain, without caps; N, C: chain ends. Non-standard residues stand in square brackets, D forms with d. Chains are numbered I, II in the order given. No end group written: not given here. bAib = not defined here; βAla = NCCC(=O)O

System: Normal Kunming (KM) mice
Experiment: multiple OGTT (mOGTT): hypoglycemic duration after a single administration
Format: in vivo
Details: single injection at the same dose (1.126 nmol), subcutaneous
Source text: • 1. Methods: Normal Kunming (KM) mice (purchased from Guangdong Animal Center) were used for oral glucose tolerance test (OGTT) to obtain the hypoglycemic activity and durability of drug. […] The blood glucose meter and blood glucose test paper were from Bayer […]. The average blood glucose of each group was used as an evaluation standard: When the average blood glucose of experimental group was higher than that of the NaCl control group for two times, the measurement stopped and the hypoglycemic period compared to the blank control group was the effective duration. • 2. Results • 2.1 single OGTTs: after a single administration, the mice were orally administered glucose once and measured the blood glucose from the tail blood at 0, 10, 20, 40, 60 and 120 min. […] The duration of each monomer group was about 1⁄2-1⁄4 of the duration of its corresponding dimer group. […] Therefore, the 2G3 peptide was selected for treating type II diabetes (T2D) in vivo and subsequent experiments.

Substance: 2G2 series 8: disulfide-linked homodimer of monomer SEQ ID NO: 8 (HAEGTFTSDVCSYLEGQAAXEFIAWLVRGRG; not fully specified; disulfide-linked homodimer; Sequence is synthesized; (20)..(20) Xaa is Xaa is 26Lys[N-e-(N-a-Palmitoyl-g-glutamyl)]; (31)..(31) N-terminal)
- Hypoglycemic duration: 7 days

Substance: 2G2 series 9: disulfide-linked homodimer of monomer SEQ ID NO: 9 (HAEGTFTSDVCSYLEGQAAXEFIAWLVRGRG; disulfide-linked homodimer; Sequence is synthesized; (20)..(20) Xaa is 26Lys[N-e-(N-a-oleoyl-L-g-glutamyl)]; (31)..(1) C-terminal)
- Hypoglycemic duration: 5 days

Substance: 2G2 series 16: disulfide-linked homodimer of monomer SEQ ID NO: 16 (chain 1 H[bAib]EGTFTSDVCSYLEGQAAKEFIAWLVR[bAib]R; chain 2 H[bAib]EGTFTSDVCSYLEGQAAKEFIAWLVR[bAib]R; disulfide I:11-II:11 (inferred); not fully specified; reading uncertain)
- Hypoglycemic duration: 4 days

Substance: 2G2 series 17: disulfide-linked homodimer of monomer SEQ ID NO: 17 (chain 1 H[bAib]EGTFTSDVCSYLEGQAAKEFIAWLVK[bAib]R-NH2; chain 2 H[bAib]EGTFTSDVCSYLEGQAAKEFIAWLVK[bAib]R-NH2; disulfide I:11-II:11 (inferred); not fully specified; reading uncertain; also: disulfide-linked homodimer)
- Hypoglycemic duration: 4 days

Substance: 2G2 series 19: disulfide-linked homodimer of monomer SEQ ID NO: 19 (chain 1 H[βAla]EGTFTSDVCSYLEGQAAKEFIAWLVR[βAla]R; chain 2 H[βAla]EGTFTSDVCSYLEGQAAKEFIAWLVR[βAla]R; disulfide I:11-II:11 (inferred); not fully specified (C-terminus))
- Hypoglycemic duration: 3 days

Substance: 2G3 series 21: disulfide-linked homodimer of monomer SEQ ID NO: 21 (HAEGTFTSDVSCYLEGQAAXEFIAWLVRGRG; disulfide-linked homodimer; Sequence is synthesized; (20)..(20) Xaa is 26Lys[N-e-(N-a-oleoyl-L-g-glutamyl)]; (31)..(31) C-terminal)
- Hypoglycemic duration: 14 days

Substance: 2G3 series 22: disulfide-linked homodimer of monomer SEQ ID NO: 22 (HAEGTFTSDVSCYLEGQAAXEFIAWLVRGRG; not fully specified; disulfide-linked homodimer; Sequence is synthesized; (20)..(20) Xaa is 26Lys[N-e-(N-a-palmitoyl-L-g-glutamyl)]; (31)..(31) N-terminal)
- Hypoglycemic duration: 16 days

Substance: 2G3 series 23: disulfide-linked homodimer of monomer SEQ ID NO: 23 (HAEGTFTSDVSCYLEGQAAXEFIAWLVRGRG; disulfide-linked homodimer; Sequence is synthesized; (20)..(20) Xaa is 26Lys[N-e-(N-a-oleoyl-L-g-glutamyl)]; (31)..(31) N-terminal)
- Hypoglycemic duration: 17 days

Substance: 2G4 series 25: disulfide-linked homodimer of monomer SEQ ID NO: 25 (HAEGTFTSDVCSYLEGQAAXEFIAWLVRGRG; not fully specified; disulfide-linked homodimer; Sequence is synthesized; (20)..(20) Xaa is 26Lys[N-e-(N-a-palmitoyl-L-g-glutamyl)]; (31)..(31) N-terminal)
- Hypoglycemic duration: 14 days

Substance: 2G4 series 26: disulfide-linked homodimer of monomer SEQ ID NO: 26 (HAEGTFTSDVCSYLEGQAAXEFIAWLVRGRG; not fully specified; disulfide-linked homodimer; Sequence is synthesized; (20)..(20) Xaa is 26Lys[N-e-(N-a-oleoyl-L-g-glutamyl)]; (31)..(31) C-terminal)
- Hypoglycemic duration: 12 days
